Assay results from patent US10786445B2 (BIOGEN CHESAPEAKE LLC, priority 2010, dated 2020).
“And” between values parts separate entries of the source, which are not always exact repeats. Equal entries are not always repeated. Where two headings read alike, the source gives them in different places. Marks after values point to notes of the source that are not given here.

What was measured:
[1] = Pharmacokinetics of glyburide after intravenous administration (published studies); assay type: in vivo, human
Excerpt: All patents and publications discussed herein are hereby incorporated by reference in their entireties.

[2] = Study 101 Phase 1: plasma glyburide pharmacokinetics, bolus plus 72 h continuous infusion of RP-1127; assay type: in vivo, human
Method: All plasma concentration data were analyzed by nonlinear regression, simultaneously incorporating drug behavior during and after the infusion.

[3] = In-use stability testing of glyburide solutions (PVC contact, in-line filter, flushing protocols); assay type: physicochemical
Excerpt: One possible explanation is that glyburide adsorbs to PVC.

[4] = Preclinical experiments: filtering concentrated reconstituted glyburide, dilution into PVC-free bag; assay type: physicochemical
Method: In these experiments, the filtered material was diluted into a PVC-free bag (for example, the B Braun EXCEL L8000).
Patients in need of glyburide treatment include patients suffering from stroke, such as acute stroke (ischemic and hemorrhagic), traumatic brain injury (TBI), spinal cord injury (SCI), myocardial infarction (MI), shock (including hemorrhagic shock), organ ischemia, ventricular arrhythmias, ischemic injury; hypoxia/ischemia; and other injuries, conditions, and disorders.

[5] = Study 101 Phase 1: serum ALT and AST; assay type: in vivo, human; details: subject receiving 6 mg/day, treated with 4,309 calories over 24 hours, two thirds carbohydrates
[6] = cited from earlier work
[7] = tested on: blood glucose; assay: Study 101 Phase 1: blood glucose / hypoglycemia; details: for Effect on median blood glucose levels: FIG. 5; for Time at which dosing was stopped early due to the hypoglycemic effect: planned 72 h infusion
Method: Blood glucose was measured throughout the study, both to obtain pharmacodynamic information as well as for safety reasons. The dosing regimen was a bolus over 2 minutes followed by a continuous infusion for 72 hours.

[8] = both sexes, human, in vivo, iv, Morrison et al. 1982, healthy males and females, N 8, i.v. dose 2.4 mg
[9] = both sexes, human, in vivo, iv, Neugebauer et al. 1985, NIDDM males and females, N 20, i.v. dose 1.25 mg
[10] = both sexes, human, in vivo, iv, Rydberg et al. 1995, healthy males and females, N 8, i.v. dose 1.0 mg, normalized to 70 kg
[11] = male, human, in vivo, iv, McEwen et al. 1982, healthy males, N 20, i.v. dose 1.48 mg
[12] = 0.4 mg/day, limit of detection 0.5 ng/mL
[13] = Study 101, 0.4 and 3.0 mg/day (N = 26), nonlinear regression
[14] = Jonsson et al. 2000, healthy males and females, data from Caucasian patients, N 10, i.v. dose 2.0 mg
[15] = McEwen et al. 1982, healthy males, N 20, i.v. dose 1.48 mg
[16] = Morrison et al. 1982, healthy males and females, N 8, i.v. dose 2.4 mg
[17] = Neugebauer et al. 1985, NIDDM males and females, N 20, i.v. dose 1.25 mg
[18] = Rogers et al. 1982, healthy males and females, N 8, i.v. dose 1 mg
[19] = Sorgel et al. 1997, healthy males, N 24, i.v. dose 1.5 mg

## COc1ccc(Cl)cc1C(=O)NCCc1ccc(S(=O)(=O)NC(=O)NC2CCCCC2)cc1 [Glyburide, 5-chloro-N-(4-[N-(cyclohexylcarbamoyl)sulfamoyl]phenethyl)-2-methoxybenzamide]
[1]; Rydberg et al. 1995, healthy males and females, N 8, i.v. dose 1.0 mg, normalized to 70 kg
  Beta: 0.52*‡ 1/h
[1]; [8]
  clearance: 73.7 mL/min
  half-life: 70.8 min
[1]; [9]
  Vd: 11.6 L
  clearance: 73.5 mL/min
[1]; [10]
  Vd: 10.9 L
  clearance: 91 mL/min
[1]; both sexes, human, plasma, iv, Jonsson et al. 2000, healthy males and females, data from Caucasian patients, N 10, i.v. dose 2.0 mg
  clearance: 28 mL/min
[1]; [11]
  Vd: 9.7 L
  clearance: 48.7 mL/min
[2]; 17.3 μg bolus plus 0.4 mg/day, 72 h infusion
  mean steady state glyburide concentration (Css): 3.8 ng/mL
[2]; 130 μg bolus plus 3 mg/day, 72 h infusion
  mean Css: 25.3 ng/mL
[2]; 0.4 mg/day
  Mean glyburide plasma level at treatment cessation: 4.4 ng/mL
  Reduction of mean glyburide plasma levels within one hour of treatment cessation: 54%
[2]; [12]
  Hour by which plasma levels were below the limits of detection in 50% of the patients: ≤ 76 h
  Hour by which plasma levels were below the limits of detection in 100% of patients: ≤ 96 h
[2]; 3 mg/day
  Hour by which plasma levels were below the limits of detection in 50% of the subjects: ≤ 84 h
  Hour by which plasma levels were below the limits of detection in 100% of patients: ≤ 96 h
  Mean glyburide plasma level at cessation of dosing: 27.3 ng/mL
  Reduction of mean glyburide plasma levels within 1 hour of cessation of dosing: 57%
[2]; Study 101
  Dependence of pharmacokinetic parameters on covariates: independent of dose, weight, height, body surface area, gender and age
[2]; Study 101, 0.4 and 3.0 mg/day (N = 26)
  clearance: 54 mL/min/m^2
[2]; [13]
  T1/2α: 26.4 min
  T1/2β: 3.31 h
[2]; Study 101, bolus plus continuous infusion
  Time to steady state following bolus administration: 8 to 20 h
[2]; Study 101, drop following the initial bolus loading dose
  Time of minimum plasma glyburide concentration after commencement of dosing (median): 1.25 to 1.5 h
[2]; both sexes, human, plasma, intravenous, 17.3 μg bolus plus 0.4 mg/day, 72 h infusion
  Cmax: 7.2 ng/mL
[2]; both sexes, human, plasma, intravenous, 0.4 mg/day
  concentration at 1 h after treatment cessation: 2 ng/mL
[2]; both sexes, human, plasma, intravenous, 3 mg/day
  concentration at 1 h after cessation of dosing: 11.9 ng/mL
[2]; both sexes, human, plasma, intravenous, Study 101, 0.4 and 3.0 mg/day (N = 26), read-out: Clearance
  clearance: 95 mL/min and 1.44 mL/min/kg
[2]; human, plasma, intravenous, 130 μg bolus plus 3 mg/day, 72 h infusion, one patient, read-out: Cmax (of all individual subjects)
  Cmax: 50.7 ng/mL
[2]; human, plasma, intravenous, 433 μg bolus plus 10 mg/day, single subject, at hour 2 (BG below 70 mg/dL)
  concentration at 2 h: 57.9 ng/mL
[2]; human, plasma, intravenous, 6 mg/day, single subject, at H12 (BG 68 mg/dL)
  concentration at 12 h: 64 ng/mL
[3]; 10 μg/mL glyburide, PVC bag but not PVC tubing
  loss of glyburide in standard PVC bag: acceptable amount of loss of glyburide
[3]; 0.2 micron in-line filter
  glyburide concentration after passage through a filter: reduced
[3]; all components and flushing protocols
  reduction in glyburide passing through the full chain of components: less than 10%
[3]; glyburide concentrations below 10 μg/mL
  glyburide concentration on storage in PVC bags: reduced
[3]; solution passed through PVC tubing or stored in a PVC bag
  glyburide concentration on contact with polyvinyl chloride (PVC): reduced
[4]; 0.2 micron filter, at least about 10 μg/mL, preferably about 0.5-1 mg/mL or greater
  Effect of filtering on glyburide concentration: does not significantly decrease the glyburide concentration
[4]; filter 1 mg/mL concentrate, dilute into PVC-free bag, unfiltered polyethylene lined tubing
  Loss of glyburide from glyburide solutions: effective to reduce the loss of glyburide
[5]
  ALT and AST: transient elevations in ALT and AST
[6]; Groop et al. 1987, bolus dose followed by continuous i.v. infusion
  mean glyburide Cmax after administration of the bolus: 240 ng/mL
[6]; [14]
  Cmax: 196 ng/mL
  clearance: 101.3 mL/min
  t1/2: 1.15 h
[6]; [15]
  Beta: 0.3 h⁻¹
  clearance: 49 mL/min
  t1/2: 2.46 h
[6]; [16]
  Beta: 0.62 h⁻¹
  Cmax: 648 ng/mL
  Vd: 7.4 L
  clearance: 73.7 mL/min
[6]; [17]
  Beta: 0.38 h⁻¹
  Cmax: 376 ng/mL
  clearance: 73.5 mL/min
  t1/2: 1.82 h
[6]; [18]
  Beta: 0.517 h⁻¹
  t1/2: 1.47 h
[6]; Rydberg et al. 1995, healthy males and females, N 8, i.v. dose 1.0 mg
  t1/2: 1.47 ± 0.42 h
[6]; [19]
  Cmax: 331 ± 65 ng/mL
  Tmax: 5.4 min
  Vd: 11.22 ± 3 L
  clearance: 74.7 ± 22 mL/min
  t1/2: 4.22 ± 1 h
[6]; Spraul et al. 1989, healthy males and females, N 52, i.v. dose 4.0 mg
  t1/2: 1.50 ± 0.36 h
[6]; range over studies: Rogers et al. 1982, Groop et al. 1987, Bank et al. 2000, Jonsson et al. 2000
  Maximum glyburide plasma concentrations: 200 to 436 ng/mL
[7]; 0.4 mg/day vs placebo
  Effect on median blood glucose levels: very minor but visible effect on BG
[7]; 433 μg bolus plus 10 mg/day, single subject
  Symptoms of hypoglycemia: classic symptoms of hypoglycemia but was always alert, oriented and conversant
[7]; 433 μg bolus plus 10 mg/day, single subject, H12-H22
  blood glucose levels: 52 to 53 mg/dL
[7]; 433 μg bolus plus 10 mg/day, single subject, hour 2
  BG: below 70 mg/dL
[7]; 433 μg bolus plus 10 mg/day, single subject, hour 22
  morning serum glucose: below 50 mg/dL
[7]; 3.0 mg/day vs placebo
  Effect on median blood glucose levels: more pronounced effect, without hypoglycemia
[7]; 6 mg/day delivered as continuous infusion
  Hypoglycemia: severe hypoglycemia occurred
[7]; 6 mg/day
  Time at which dosing was stopped early due to the hypoglycemic effect: around 32 hours
[7]; 6 mg/day, single subject, H0 to H8
  blood glucose levels: above 70 mg/dL
[7]; 6 mg/day, single subject, after IV dextrose (10%) 100 cc/hour from approximately H29
  blood glucose: 64 to 123 mg/dL
[7]; 6 mg/day, single subject, approximately H13.3, lasted 15 minutes
  Signs of hypoglycemia: signs of hypoglycemia in the form of sweating (diaphoresis) and hunger
[7]; 6 mg/day, single subject, at H12
  BG: 68 mg/dL
[7]; 10 mg/day delivered as continuous infusion
  Hypoglycemia: severe hypoglycemia occurred
[7]; 10 mg/day
  Time at which dosing was stopped early due to the hypoglycemic effect: around 24 hours
